Reference: patent publication EP0450097B1, “BENZOHETEROCYCLIC COMPOUNDS” (OTSUKA PHARMACEUTICAL CO., LTD., priority 1989, dated 1991)
pIC50: −log10 of the molar value.

Tests used:
V₂ receptor = target: T1, V₂ receptor (Rattus norvegicus, UniProt Q00788); assay: V₂ receptor binding assay ([³H]-Arg-vasopressin, rat kidney plasma membrane preparations); conditions: 4°C for 3 hours
T1 construct: Using rat kidney plasma membrane preparations; from tissue; host or cells: rat kidney plasma membranes
Procedure: Using rat kidney plasma membrane preparations prepared according to O. Hechter's method [cf: J. Bio. […] After incubation, the mixture is filtered using the glass filter (GF/F) so as to separate the membrane preparation combined with vasopressin and then washed twice with the buffer (5 ml). This glass filter is taken out and mixed with liquid scintillation cocktail. The amount of [³H]-vasopressin combined with the membrane is measured by liquid scintillation counter and the rate of the inhibitory effect of the test compound is estimated according to the following equation. Rate of the inhibitory effect (%) = 100 -(C1 - B1)/(C0 - B1)X 100 [formula] C¹: The amount of [³H]-vasopressin combined with the membrane in the presence of the test compound (in prescribed amount). C⁰: The amount of [³H)-vasopressin combined with the membrane in the absence of the test compound. B¹: The amount of [³H]-vasopressin combined with the membrane in the presence of the excess amount of vasopressin (10⁻⁶ M).
(§1) The results are expressed as IC₅₀ values, which is the concentration of the test compound required to achieve the inhibitory effect in the rate of 50 %.

V₁ receptor = target: T2, V₁ receptor (Rattus norvegicus, UniProt P30560); assay: V₁ receptor binding assay ([³H]-Arg-vasopressin, rat liver plasma membrane preparations); conditions: 37°C for 10 minutes
T2 construct: Using rat liver plasma membrane preparations; from tissue; host or cells: rat liver plasma membranes
Procedure: Using rat liver plasma membrane preparations prepared according to Ichihara's method [cf: Akira Ichihara, J. Bio. Chem., 258, 9283 (1983)], the plasma membrane (50000dpm, 2x10⁻¹⁰ M) of [³H]-Arg-vasopressin and a test compound (60 µg, 10⁻⁸-10⁻⁴ M) are incubated at 37°C for 10 minutes in 100 mM Tris-HCl buffer (pH: 8.0, 250 µl) containing 5 mM MgCl₂, 1 mM EDTA and 0.1 % BSA. After incubation, the mixture is filtered three times using the glass filter (GF/F) so as to separate the membrane preparation combined with vasopressin and then washed with the buffer (5 ml). This glass filter is taken out and mixed with liquid scintillation cocktail. The amount of [³H]-vasopressin combined with the membrane is measured by liquid scintillation counter and the rate of the inhibitory effect of the test compound is estimated according to the following equation. Rate of the inhibitory effect (%) = 100 -(C1 - B1)/(C0 - B1)X 100 [formula] C¹: The amount of [³H]-vasopressin combined with the membrane in the presence of the test compound (in prescribed amount). C⁰: The amount of [³H]-vasopressin combined with the membrane in the absence of the test compound. B¹: The amount of [³H]-vasopressin combined with the membrane in the presence of the excess amount of vasopressin (10⁻⁶ M).
as §1

T2 sequence (P30560 whole entry): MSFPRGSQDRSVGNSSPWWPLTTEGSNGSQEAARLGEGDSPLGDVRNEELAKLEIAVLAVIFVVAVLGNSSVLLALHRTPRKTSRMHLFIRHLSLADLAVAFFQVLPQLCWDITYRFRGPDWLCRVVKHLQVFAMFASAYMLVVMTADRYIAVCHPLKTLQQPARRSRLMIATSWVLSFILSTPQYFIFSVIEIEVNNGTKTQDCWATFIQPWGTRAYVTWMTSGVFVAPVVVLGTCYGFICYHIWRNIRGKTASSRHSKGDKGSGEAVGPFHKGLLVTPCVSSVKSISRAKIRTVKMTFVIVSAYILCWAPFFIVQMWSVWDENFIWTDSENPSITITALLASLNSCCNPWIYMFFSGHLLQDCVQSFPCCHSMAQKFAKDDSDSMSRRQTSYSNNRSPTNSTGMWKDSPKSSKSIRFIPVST
T1 sequence (Q00788 whole entry): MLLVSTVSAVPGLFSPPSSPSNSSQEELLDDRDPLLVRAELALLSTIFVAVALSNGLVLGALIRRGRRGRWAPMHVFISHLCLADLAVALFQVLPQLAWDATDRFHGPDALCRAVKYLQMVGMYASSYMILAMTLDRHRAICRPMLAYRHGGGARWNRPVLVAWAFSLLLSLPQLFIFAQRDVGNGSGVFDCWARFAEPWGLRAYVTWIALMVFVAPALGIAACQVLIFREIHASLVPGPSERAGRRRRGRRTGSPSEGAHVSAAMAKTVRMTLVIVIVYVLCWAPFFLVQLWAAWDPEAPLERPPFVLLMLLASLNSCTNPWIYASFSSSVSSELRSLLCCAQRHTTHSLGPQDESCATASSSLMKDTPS

pIC50 (V₂ receptor) | pIC50 (V₁ receptor) | SMILES
7.60 | 7.15 | O=C(Nc1ccc(C(=O)N2CCCCc3ccccc32)cc1)C1CCCCC1 [compound 26]
7.16 | 6.82 | COc1cccc(C(=O)Nc2ccc(C(=O)N3CCCCc4ccccc43)cc2)c1 [compound 29]
6.80 | 6.34 | O=C(Nc1ccc(C(=O)N2CCCCc3ccccc32)cc1)c1cccc([N+](=O)[O-])c1 [compound 57]
6.85 | 6.40 | O=C(Nc1ccc(C(=O)N2CCCCc3ccccc32)cc1)c1cccc(C(F)(F)F)c1 [compound 58]
7.02 |  | CNC(=O)NC1CCCN(C(=O)c2ccc(NC(=O)c3ccccc3C)cc2)c2ccccc21 (centres unmarked) [compound 283]
7.15 |  | CN(C)C1CCCN(C(=O)c2ccc(NC(=O)c3cccc([N+](=O)[O-])c3)cc2)c2ccccc21 (centres unmarked) [compound 289]
7.29 |  | Cc1ccccc1C(=O)Nc1ccc(C(=O)N2CCCC(N(C)C(=O)Cn3ccnc3)c3ccccc32)cc1 (centres unmarked) [compound 297]
6.66 |  | Cc1ccccc1C(=O)Nc1ccc(C(=O)N2CCCC(NC(=O)CN)c3ccccc32)cc1 (centres unmarked) [compound 299]
6.32 |  | CC(=O)Nc1cccc(C(=O)Nc2ccc(C(=O)N3CCCC(N(C)C)c4ccccc43)cc2)c1 (centres unmarked) [compound 300]
7.11 |  | CN(C)C1CCCN(C(=O)c2ccc(NC(=O)CCc3ccccc3)cc2)c2ccccc21 (centres unmarked) [compound 306]
7.41 |  | CNC1CCCCN(C(=O)c2ccc(NC(=O)c3ccccc3C)cc2)c2ccccc21 (centres unmarked) [compound 320]

Second part, the compound before the results:

SMILES | pIC50 (V₂ receptor) | pIC50 (V₁ receptor)
O=C(Nc1ccc(C(=O)N2CCCCc3ccccc32)cc1)c1ccccc1 [compound 27] | 7.15 | 7.02
Cc1ccccc1C(=O)Nc1ccc(C(=O)N2CCCCc3ccccc32)cc1 [compound 28] | 7.74 | 7.25
O=C(Nc1ccc(C(=O)N2CCCCc3ccccc32)cc1)c1cccc(Cl)c1 [compound 30] | 7.54 | 6.82
O=C(Nc1ccc(C(=O)N2CCCCc3ccccc32)cc1)c1cc(Cl)cc(Cl)c1 [compound 32] | 7.80 | 6.52
Cc1ccccc1C(=O)Nc1ccc(C(=O)N2CCCCCc3ccccc32)cc1 [compound 36] | 7.55 | 6.39
Cc1ccccc1C(=O)Nc1ccc(C(=O)N2CC(C)Cc3ccccc32)cc1 (centres unmarked) [compound 46] | 7.74 | 6.40
O=C(Nc1ccc(C(=O)N2CCCCc3ccccc32)cc1)c1ccccc1Br [compound 56] | 7.43 | 7.60
CCOc1cccc(C(=O)Nc2ccc(C(=O)N3CCCCc4ccccc43)cc2)c1 [compound 59] | 6.62 | 6.51
CNCC(=O)NC1CCCN(C(=O)c2ccc(NC(=O)c3ccccc3C)cc2)c2ccccc21 (centres unmarked) [compound 291] | 6.89 | 
CN(C)C1CCCN(C(=O)c2ccc(NC(=O)c3cccc(N)c3)cc2)c2ccccc21 (centres unmarked) [compound 292] | 6.74 | 
CCN(CC)CCOc1cc(C(=O)N2CCCC(N(C)C)c3ccccc32)ccc1NC(=O)c1ccccc1C (centres unmarked) [compound 294] | 6.48 | 
Cc1ccccc1C(=O)Nc1ccc(C(=O)N2CCCC(N(C)CC(=O)N(C)C)c3ccccc32)cc1 (centres unmarked) [compound 295] | 7.59 | 
Cc1ccccc1C(=O)Nc1ccc(C(=O)N2CCCC(NC(=O)CNC(=O)OC(C)(C)C)c3ccccc32)cc1 (centres unmarked) [compound 301] | 6.85 | 
CN(C)C1CCCN(C(=O)c2ccc(NC(=O)Cc3ccccc3)cc2)c2ccccc21 (centres unmarked) [compound 305] | 7.42 | 
CCN(C)C1CCCN(C(=O)c2ccc(NC(=O)c3ccccc3Cl)cc2Cl)c2ccccc21 (centres unmarked) [compound 314] | 7.02 | 
Cc1ccccc1N(C)CC(=O)Nc1ccc(C(=O)N2CCCC(N(C)C)c3ccccc32)cc1 (centres unmarked) [compound 317] | 7.14 | 
CNC1CCCN(C(=O)c2ccc(NC(=O)c3ccccc3C)cc2)c2c(Cl)cccc21 (centres unmarked) [compound 318] | 7.22 | 
CN(C)C1CCCN(C(=O)c2ccc(NC(=O)COc3ccccc3)cc2)c2ccccc21 (centres unmarked) [compound 319] | 7.24 | 
